According to PubChem BioAssay (NCI):
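Briefly, cells in 96-well plates were exposed to five compound concentrations for 48 h, and endpoints were estimated by linear interpolation. TGI: concentration producing complete growth inhibition.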

What was measured:
Experiment in all cases: NCI-60 cell line screen, 48 h
MOLT-4 leukemia = system: MOLT-4 leukemia
T-47D breast = system: T-47D breast
SW-620 colon = system: SW-620 colon
NCI-H460 lung = system: NCI-H460 lung
DU-145 prostate = system: DU-145 prostate
ACHN renal = system: ACHN renal
MDA-MB-231 breast = system: MDA-MB-231 breast
SF-268 CNS = system: SF-268 CNS
UO-31 renal = system: UO-31 renal
PC-3 prostate = system: PC-3 prostate
SN12C renal = system: SN12C renal
IGROV1 ovarian = system: IGROV1 ovarian
786-0 renal = system: 786-0 renal
NCI-H23 lung = system: NCI-H23 lung
HCC-2998 colon = system: HCC-2998 colon
HCT-116 colon = system: HCT-116 colon
HCT-15 colon = system: HCT-15 colon
A549 NSCLC = system: A549 NSCLC
SF-539 CNS = system: SF-539 CNS
OVCAR-5 ovarian = system: OVCAR-5 ovarian
M14 melanoma = system: M14 melanoma
COLO 205 colon = system: COLO 205 colon
SNB-75 CNS = system: SNB-75 CNS
SNB-19 CNS = system: SNB-19 CNS
HT29 colon = system: HT29 colon
SK-MEL-28 melanoma = system: SK-MEL-28 melanoma
CCRF-CEM leukemia = system: CCRF-CEM leukemia
TK-10 renal = system: TK-10 renal
SK-MEL-5 melanoma = system: SK-MEL-5 melanoma
OVCAR-8 ovarian = system: OVCAR-8 ovarian
MDA-N = system: MDA-N
MDA-MB-435 = system: MDA-MB-435
NCI/ADR-RES ovarian = system: NCI/ADR-RES ovarian
NCI-H522 lung = system: NCI-H522 lung
MALME-3M melanoma = system: MALME-3M melanoma
HOP-92 NSCLC = system: HOP-92 NSCLC
RXF 393 renal = system: RXF 393 renal
HL-60(TB) leukemia = system: HL-60(TB) leukemia
KM12 colon = system: KM12 colon
UACC-257 melanoma = system: UACC-257 melanoma
HS 578T breast = system: HS 578T breast
EKVX NSCLC = system: EKVX NSCLC
OVCAR-3 ovarian = system: OVCAR-3 ovarian
NCI-H226 lung = system: NCI-H226 lung
OVCAR-4 ovarian = system: OVCAR-4 ovarian
MCF7 breast = system: MCF7 breast
CAKI-1 renal = system: CAKI-1 renal
SF-295 CNS = system: SF-295 CNS
RPMI-8226 leukemia = system: RPMI-8226 leukemia
LOX IMVI melanoma = system: LOX IMVI melanoma
U251 CNS = system: U251 CNS
HOP-62 NSCLC = system: HOP-62 NSCLC
A498 renal = system: A498 renal
SR leukemia = system: SR leukemia
K-562 leukemia = system: K-562 leukemia
SK-MEL-2 melanoma = system: SK-MEL-2 melanoma
UACC-62 melanoma = system: UACC-62 melanoma
SK-OV-3 ovarian = system: SK-OV-3 ovarian

CO[C@@H]1C[C@H]2[C@@H]3CC[C@H]([C@@H](C)CO)[C@@]3(C)CC[C@@H]2[C@@]2(C)CC[C@H]3C[C@]312
TGI (MOLT-4 leukemia): > 100 µM
TGI (T-47D breast): > 100 µM
TGI (SW-620 colon): > 100 µM
TGI (NCI-H460 lung): 43.1 µM
TGI (DU-145 prostate): > 100 µM
TGI (ACHN renal): 66.4 µM
TGI (MDA-MB-231 breast): 80.7 µM
TGI (SF-268 CNS): > 100 µM
TGI (UO-31 renal): 98.8 µM
TGI (PC-3 prostate): 57.3 µM
TGI (SN12C renal): 77.1 µM
TGI (IGROV1 ovarian): > 100 µM
TGI (786-0 renal): > 100 µM
TGI (NCI-H23 lung): > 100 µM
TGI (HCC-2998 colon): > 100 µM
TGI (HCT-116 colon): > 100 µM
TGI (HCT-15 colon): > 100 µM
TGI (A549 NSCLC): > 100 µM
TGI (SF-539 CNS): > 100 µM
TGI (OVCAR-5 ovarian): > 100 µM
TGI (M14 melanoma): 69.8 µM
TGI (COLO 205 colon): 31.4 µM
TGI (SNB-75 CNS): > 100 µM
TGI (SNB-19 CNS): > 100 µM
TGI (HT29 colon): 36.2 µM
TGI (SK-MEL-28 melanoma): 83.5 µM
TGI (CCRF-CEM leukemia): > 100 µM
TGI (TK-10 renal): > 100 µM
TGI (SK-MEL-5 melanoma): 31.1 µM
TGI (OVCAR-8 ovarian): > 100 µM
TGI (MDA-N): > 100 µM
TGI (MDA-MB-435): > 100 µM
TGI (NCI/ADR-RES ovarian): 93 µM
TGI (NCI-H522 lung): 71.8 µM
TGI (MALME-3M melanoma): 41.2 µM
TGI (HOP-92 NSCLC): 58.5 µM
TGI (RXF 393 renal): 45.6 µM
TGI (HL-60(TB) leukemia): 76.3 µM
TGI (KM12 colon): 36.6 µM
TGI (UACC-257 melanoma): 71.9 µM
TGI (HS 578T breast): 82.3 µM
TGI (EKVX NSCLC): > 100 µM
TGI (OVCAR-3 ovarian): > 100 µM
TGI (NCI-H226 lung): 59.9 µM
TGI (OVCAR-4 ovarian): > 100 µM
TGI (MCF7 breast): 31.8 µM
TGI (CAKI-1 renal): > 100 µM
TGI (SF-295 CNS): 89.2 µM
TGI (RPMI-8226 leukemia): 89.6 µM
TGI (LOX IMVI melanoma): 34.6 µM
TGI (U251 CNS): 27.7 µM
TGI (HOP-62 NSCLC): > 100 µM
TGI (A498 renal): > 100 µM
TGI (SR leukemia): > 100 µM
TGI (K-562 leukemia): 60.5 µM

O=C1CCCCCCCCCCC1CCCCCBr (stereo unspecified)
TGI (MOLT-4 leukemia): 33.6 µM
TGI (T-47D breast): 73.9 µM
TGI (SK-MEL-2 melanoma): 32.4 µM
TGI (SW-620 colon): > 100 µM
TGI (NCI-H460 lung): > 100 µM
TGI (DU-145 prostate): > 100 µM
TGI (ACHN renal): 84 µM
TGI (MDA-MB-231 breast): 45.1 µM
TGI (SF-268 CNS): > 100 µM
TGI (UO-31 renal): 65.9 µM
TGI (PC-3 prostate): > 100 µM
TGI (SN12C renal): 43.1 µM
TGI (IGROV1 ovarian): 56.2 µM
TGI (786-0 renal): 86 µM
TGI (NCI-H23 lung): 74.8 µM
TGI (HCC-2998 colon): 38.6 µM
TGI (HCT-116 colon): 45.9 µM
TGI (HCT-15 colon): 56.8 µM
TGI (A549 NSCLC): > 100 µM
TGI (SF-539 CNS): 59.1 µM
TGI (OVCAR-5 ovarian): 67.1 µM
TGI (M14 melanoma): 83.6 µM
TGI (COLO 205 colon): 35.8 µM
TGI (SNB-75 CNS): 49.8 µM
TGI (SNB-19 CNS): 64.7 µM
TGI (HT29 colon): 95.6 µM
TGI (SK-MEL-28 melanoma): 84.4 µM
TGI (UACC-62 melanoma): > 100 µM
TGI (CCRF-CEM leukemia): 35 µM
TGI (TK-10 renal): > 100 µM
TGI (SK-MEL-5 melanoma): 31.2 µM
TGI (OVCAR-8 ovarian): > 100 µM
TGI (MDA-N): > 100 µM
TGI (MDA-MB-435): 97.7 µM
TGI (NCI/ADR-RES ovarian): 64.3 µM
TGI (NCI-H522 lung): 44.4 µM
TGI (MALME-3M melanoma): 38.4 µM
TGI (HOP-92 NSCLC): 67.6 µM
TGI (RXF 393 renal): 43.8 µM
TGI (KM12 colon): 53.7 µM
TGI (UACC-257 melanoma): 58.5 µM
TGI (HS 578T breast): > 100 µM
TGI (EKVX NSCLC): > 100 µM
TGI (SK-OV-3 ovarian): > 100 µM
TGI (OVCAR-3 ovarian): 44.7 µM
TGI (NCI-H226 lung): 40 µM
TGI (OVCAR-4 ovarian): 67.2 µM
TGI (MCF7 breast): 63.3 µM
TGI (CAKI-1 renal): 95.1 µM
TGI (SF-295 CNS): > 100 µM
TGI (LOX IMVI melanoma): 37.8 µM
TGI (U251 CNS): 43.3 µM
TGI (HOP-62 NSCLC): > 100 µM
TGI (A498 renal): 28.2 µM
TGI (SR leukemia): 44.1 µM
TGI (K-562 leukemia): 34.5 µM
